# Assays:
# Type in all cases: cell-based
# [1] = molecular target: ER (Homo sapiens (Human), UniProt P03372); assay: In-cell western blot analysis of ER for "B" compounds; details: 16 hours, read-out: ICW DC50
# Description: R^T 2h, gentle shaking. Negative control: cells plus secondary antibodies (no primary antibodies); e, wash x 4 with PBS+0.05-0.1% Tween 20, gentel shaking; f, anti-rabbit-680 and anti-mouse-800 (both 1:1000 in LiCor block+0.05% Tween20, R^T 1h, gentle shaking, no light. LI-COR: 0.2% to reduce background; g, wash×4 with PBS+0.05% Tween 20, gental shaking; h, add 100 μL or 25 μL of PBS to each well and read on CLX plate reader. The relative ER percentage in treated cells were obtained by comparing the values of treated wells to those in untreated and DMSO-treated wells as 100%.
# [2] = Western blot analysis for "B" compounds; details: read-out: Traditional Western Degradation Potency (DC50)
# Method in brief: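 Target protein levels given as relative mean band intensity over GAPDH from scanned immunoblots. Lysates of treated cells in RIPA buffer, equalized by BCA, separated on 10% gels and transferred to PVDF.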
# [3] = Cell growth assay (WST-8) for "B" compounds; details: T47D, T47D cell line; read-out: Cell growth Inhibition in T47D cell line IC50
# Description: Cell Growth Assay. The cells were seeded at 1500/well in 96 well plates overnight. One day after the seeding, they were treated with indicated doses of compounds respectively, 4 days after the compound treatment, 10% WST-8 reagent was added to the culture medium and incubate in a CO2 incubator at 37° C. for 2.5 hours. Before reading, the plate was mixed gently on an orbital shaker for one minute to ensure homogeneous distribution of color. The absorbance was measured of each sample using a microplate reader at a wavelength of 450 nm. The relative absorbance was calculated against the vehicle control from three individually repeats.
# ER, sequence (P03372 whole entry): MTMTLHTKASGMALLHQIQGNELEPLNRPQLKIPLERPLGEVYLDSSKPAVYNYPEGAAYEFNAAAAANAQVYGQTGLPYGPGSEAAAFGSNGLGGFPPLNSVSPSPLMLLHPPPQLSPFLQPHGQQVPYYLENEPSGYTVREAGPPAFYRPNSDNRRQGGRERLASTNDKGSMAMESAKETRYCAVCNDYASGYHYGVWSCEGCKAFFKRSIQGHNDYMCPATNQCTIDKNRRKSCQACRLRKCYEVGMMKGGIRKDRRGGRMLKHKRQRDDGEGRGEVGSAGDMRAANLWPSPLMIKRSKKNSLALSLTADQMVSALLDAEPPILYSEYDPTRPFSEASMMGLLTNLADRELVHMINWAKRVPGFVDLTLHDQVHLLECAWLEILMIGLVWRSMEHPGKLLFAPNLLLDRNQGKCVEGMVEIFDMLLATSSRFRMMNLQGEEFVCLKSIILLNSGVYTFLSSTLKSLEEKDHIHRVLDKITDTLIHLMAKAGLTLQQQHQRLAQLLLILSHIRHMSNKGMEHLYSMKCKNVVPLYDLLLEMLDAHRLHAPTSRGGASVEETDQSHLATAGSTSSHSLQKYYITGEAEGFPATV
SMILES,DC50 [1] [µM],DC50 [2] [µM],IC50 [3] [µM]
"O=C1CCC(N2Cc3cc4c(cc3C2=O)OC[C@@H]2CN(CC3CCN(c5ccc([C@@H]6c7ccc(O)cc7CC[C@@H]6c6ccccc6)cc5)CC3)CCN42)C(=O)N1 (stereo partly drawn) [Compound B135, 3-((S)-3-((1-(4-((1R,2S)-6-hydroxy-2-phenyl-1,2,3,4-tetrahydronaphthalen-1-yl)phenyl)piperidin-4-yl)methyl)-8-oxo-1,2,3,4,4a,5,8,10-octahydro-9H-pyrazino[1′,2′:4,5][1,4]oxazino[2,3-f]isoindol-9-yl)piperidine-2,6-dione]",,0.01 to 0.1,0.001 to 0.01
"COc1c2c(cc3c1C(=O)N(C1CCC(=O)NC1=O)C3=O)CN(CC(=O)N1CCC3(CC1)CCN(c1ccc([C@@H]4c5ccc(O)cc5CC[C@@H]4c4ccccc4)cc1)CC3)C2 (stereo partly drawn) [Compound B136, 2-(2,6-dioxopiperidin-3-yl)-6-(2-(9-(4-((1R,2S)-6-hydroxy-2-phenyl-1,2,3,4-tetrahydronaphthalen-1-yl)phenyl)-3,9-diazaspiro[5.5]undecan-3-yl)-2-oxoethyl)-4-methoxy-6,7-dihydropyrrolo[3,4-f]isoindole-1,3(2H,5H)-dione]",,0.01 to 0.1,0.001 to 0.01
"O=C1CCC(N2C(=O)c3cc4c(cc3C2=O)CN(CC(=O)N2CCC3(CC2)CCN(c2ccc([C@H]5c6ccc7[nH]ncc7c6CC[C@H]5c5ccccc5)cc2)CC3)C4)C(=O)N1 (stereo partly drawn) [Compound B138, 2-(2,6-dioxopiperidin-3-yl)-6-(2-oxo-2-(9-(4-((6S,7R)-7-phenyl-6,7,8,9-tetrahydro-3H-benzo[e]indazol-6-yl)phenyl)-3,9-diazaspiro[5.5]undecan-3-yl)ethyl)-6,7-dihydropyrrolo[3,4-f]isoindole-1,3(2H,5H)-dione]",,> 0.1,0.001 to 0.01
"O=C1CCC(N2Cc3cc4c(cc3C2=O)OC[C@@H]2CN(CC(=O)N3C[C@@H]5CN(c6ccc([C@@H]7c8ccc(O)cc8CC[C@@H]7c7ccccc7)cc6)C[C@@H]5C3)CCN42)C(=O)N1 (stereo partly drawn) [Compound B156, 3-((S)-3-(2-((3aR,6aS)-5-(4-((1R,2S)-6-hydroxy-2-phenyl-1,2,3,4-tetrahydronaphthalen-1-yl)phenyl)hexahydropyrrolo[3,4-c]pyrrol-2(1H)-yl)-2-oxoethyl)-8-oxo-1,2,3,4,4a,5,8,10-octahydro-9H-pyrazino[1′,2′:4,5][1,4]oxazino[2,3-f]isoindol-9-yl)piperidine-2,6-dione]",> 0.1,,
"O=C1CCC(N2Cc3cc4c(cc3C2=O)OC[C@@H]2CN(C(=O)CN3CCC5(CC3)CCN(c3ccc([C@@H]6c7ccc(O)cc7CC[C@@H]6c6ccccc6)cn3)CC5)CCN42)C(=O)N1 (stereo partly drawn) [Compound B158, 3-((S)-3-(2-(9-(5-((1S,2S)-6-hydroxy-2-phenyl-1,2,3,4-tetrahydronaphthalen-1-yl)pyridin-2-yl)-3,9-diazaspiro[5.5]undecan-3-yl)acetyl)-8-oxo-1,2,3,4,4a,5,8,10-octahydro-9H-pyrazino[1′,2′:4,5][1,4]oxazino[2,3-f]isoindol-9-yl)piperidine-2,6-dione]",0.01 to 0.1,,
"O=C1CCC(N2Cc3cc4c(cc3C2=O)OC[C@@H]2CN(CC(=O)N3CCC5(CC3)CN(c3ccc([C@@H]6c7ccc(O)cc7CC[C@@H]6c6ccccc6)cc3)C5)CCN42)C(=O)N1 (stereo partly drawn) [Compound B160, 3-((S)-3-(2-(2-(4-((1R,2S)-6-hydroxy-2-phenyl-1,2,3,4-tetrahydronaphthalen-1-yl)phenyl)-2,7-diazaspiro[3.5]nonan-7-yl)-2-oxoethyl)-8-oxo-1,2,3,4,4a,5,8,10-octahydro-9H-pyrazino[1′,2′:4,5][1,4]oxazino[2,3-f]isoindol-9-yl)piperidine-2,6-dione]",< 0.01,,
"O=C1CCC(N2Cc3cc4c(cc3C2=O)OC[C@@H]2CN(C(=O)CN3CCC5(CC3)CN(c3ccc([C@@H]6c7ccc(O)cc7CC[C@@H]6c6ccccc6)cc3)C5)CCN42)C(=O)N1 (stereo partly drawn) [Compound B161, 3-((S)-3-(2-(2-(4-((1R,2S)-6-hydroxy-2-phenyl-1,2,3,4-tetrahydronaphthalen-1-yl)phenyl)-2,7-diazaspiro[3.5]nonan-7-yl)acetyl)-8-oxo-1,2,3,4,4a,5,8,10-octahydro-9H-pyrazino[1′,2′:4,5][1,4]oxazino[2,3-f]isoindol-9-yl)piperidine-2,6-dione]",< 0.01,,
"CN1C[C@@H]2CN(C(=O)CN3CC4(CCN(c5ccc([C@@H]6c7ccc(O)cc7CC[C@@H]6c6ccccc6)cc5)CC4)C3)CCN2c2cc3c(cc21)C(=O)N(C1CCC(=O)NC1=O)C3 (stereo partly drawn) [Compound B162, 3-((R)-3-(2-(7-(4-((1R,2S)-6-hydroxy-2-phenyl-1,2,3,4-tetrahydronaphthalen-1-yl)phenyl)-2,7-diazaspiro[3.5]nonan-2-yl)acetyl)-6-methyl-8-oxo-2,3,4,4a,5,6,8,10-octahydropyrazino[1,2-a]pyrrolo[3,4-g]quinoxalin-9(1H)-yl)piperidine-2,6-dione]",0.01 to 0.1,,

# More lines, main results first:
DC50 [1] [µM],DC50 [2] [µM],SMILES,IC50 [3] [µM]
> 0.1,,"O=C1CCC(N2Cc3cc4c(cc3C2=O)OC[C@@H]2CN(CC3CC5CN(c6ccc([C@@H]7c8ccc(O)cc8CC[C@@H]7c7ccccc7)cc6)CC5C3)CCN42)C(=O)N1 (mixture of isomers) [Compound B321, 3-((4aS)-3-(((3aRS,6aSR)-2-(4-((1R,2S)-6-hydroxy-2-phenyl-1,2,3,4-tetrahydronaphthalen-1-yl)phenyl)octahydrocyclopenta[c]pyrrol-5-yl)methyl)-8-oxo-1,2,3,4,4a,5,8,10-octahydro-9H-pyrazino[1′,2′:4,5][1,4]oxazino[2,3-f]isoindol-9-yl)piperidine-2,6-dione]",
< 0.01,,"O=C1CCC(N2Cc3c(ccc4c3OCC43CCN(C(=O)CN4CCC5(C4)CN(c4ccc([C@@H]6c7ccc(O)cc7CC[C@@H]6c6ccccc6)cc4)C5)CC3)C2=O)C(=O)N1 (stereo partly drawn) [Compound B169, 3-(1′-(2-(2-(4-((1R,2S)-6-hydroxy-2-phenyl-1,2,3,4-tetrahydronaphthalen-1-yl)phenyl)-2,6-diazaspiro[3.4]octan-6-yl)acetyl)-6-oxo-6,8-dihydro-2H,7H-spiro[furo[2,3-e]isoindole-3,4′-piperidin]-7-yl)piperidine-2,6-dione]",
> 0.1,,"O=C1CCC(N2Cc3c(ccc4c3OC[C@H]3CN(CC5CC6CN(c7ccc([C@@H]8c9ccc(O)cc9CC[C@@H]8c8ccccc8)cc7)CC6C5)CCN43)C2=O)C(=O)N1 (stereo partly drawn) [Compound B320, 3-((5aR)-7-(((3aRS,6aSR)-2-(4-((1R,2S)-6-hydroxy-2-phenyl-1,2,3,4-tetrahydronaphthalen-1-yl)phenyl)octahydrocyclopenta[c]pyrrol-5-yl)methyl)-1-oxo-1,3,5,5a,6,7,8,9-octahydro-2H-pyrazino[1′,2′:4,5][1,4]oxazino[2,3-c]isoindol-2-yl)piperidine-2,6-dione]",
< 0.01,,"O=C1CCC(N2Cc3c(ccc4c3OC[C@H]3CN(C[C@H]5CC[C@H](Nc6ccc([C@@H]7c8ccc(O)cc8CC[C@@H]7c7ccccc7)cc6)CC5)CCN43)C2=O)C(=O)N1 (stereo partly drawn) [Compound B322, 3-((R)-7-(((1R,4R)-4-((4-((1R,2S)-6-hydroxy-2-phenyl-1,2,3,4-tetrahydronaphthalen-1-yl)phenyl)amino)cyclohexyl)methyl)-1-oxo-1,3,5,5a,6,7,8,9-octahydro-2H-pyrazino[1′,2′:4,5][1,4]oxazino[2,3-e]isoindol-2-yl)piperidine-2,6-dione]",

# Source: patent US20260028354A1, “TETRAHYDRONAPHTHALENE DERIVATIVES AS ESTROGEN RECEPTOR DEGRADERS” (REGENT OF THE UNIVERSITY OF MICHIGAN, priority 2022, published 2026)
